System: T24 urinary bladder cancer cells
Assay: Fluorescence enhancement in T24 cells by separate administration of hypericin and particles
Type: cell-based, human
Conditions: Example 9, fluorescent dye = hypericin 1 μmol/l 1 h, then particles 0.001 w/v % 2 h, immediately after observation light irradiation
Procedure: A solution (100 mmol/l) of hypericin (FUJIFILM Wako Pure Chemical Corporation) in dimethyl sulfoxide (FUJIFILM Wako Pure Chemical Corporation) as a solvent was mixed into an MEM medium (MEM, GlutaMAX™ supplement (Thermo Fisher Scientific)) to form a 1 μmol/l hypericin solution. Further, an aqueous solution of light scattering particles (2) (ii) was mixed into an MEM medium to form a 0.001 w/v % light scattering particle solution. Evaluation was performed as follows. The medium of the T24 cells on a 6-well plate, obtained in Example 3, was removed by an aspirator, and thereto was added 2 ml of MEM medium (Thermo Fisher Scientific). Once again, the MEM medium was removed by an aspirator, thereto was added 2 ml of hypericin solution, and the system was cultured under conditions of 3TC and 5 v/v % CO2 for 1 hour. Then, the hypericin solution of the cells on the 6-well plate was removed by an aspirator, to the residue was added 2 ml of the light scattering particle solution, and the system was cultured under conditions of 3TC and 5 v/v % CO2 for 2 hours. […] Detection of fluorescence was performed in the same manner as in Example 5 by using an inverted fluorescence microscope and, from the images acquired, fluorescence intensities were obtained and relative fluorescence intensities were calculated.

Compound: Cc1cc(O)c2c(=O)c3c(O)cc(O)c4c5c(O)cc(O)c6c(=O)c7c(O)cc(C)c8c1c2c(c34)c(c78)c65 [hypericin]
- Relative fluorescence intensity: 1.0

— patent US20190018003A1, “TUMOR DISCRIMINATION METHOD, DIAGNOSTIC AGENT FOR TUMOR, AND SENSITIZER FOR TUMOR DIAGNOSIS” (TOTO LTD., priority 2017, published 2019)
